Experimental data published in patent publication US8193210B2, “Camptothecin derivatives with antitumor activity” (Indena S.p.A., priority 2006, dated 2012).
Converted amounts (≈) assume the structure as drawn. Read-outs that look alike come from different tables or passages of the source.

Experiments:
[1] = test system: NCI-H460 cell line (NSCL cancer); test: Cell growth inhibition assay (cytotoxicity, cell count); format: cell-based, human; settings: for NCl-H460 IC50 (μg/mL) Cell count: H460 cells; for IC50: Homo sapiens
Method: The compounds of the invention were tested in a cytotoxicity assay on a wide spectrum of tumour cells. By way of example, the cytotoxicity data on the NCI-H460 cell line (NSCL cancer) concerning two compounds of formula (I) are reported, using camptothecin and the drugs Topotecan and SN-38 as references:
H460 Cells from human large cell lung tumor were cultured in RPMI-1640 medium containing 10% foetal calf serum. Cell sensitivity was determined by cell growth inhibition assay after 1 or 72 hr drug exposure. The cells in logarithmic growth were collected and seeded in duplicate in 6-wells plates. […] IC50 is defined as the concentration inhibiting by 50% cell growth compared with untreated controls growth.

[2] = target: T1, human recombinant enzyme (full length top1) (Homo sapiens, UniProt P11387); test: Topoisomerase-I-dependent DNA rupture assay, persistence of DNA damage; format: biochemical; settings: 30 min incubation with 10 μM drug
T1 construct: the human recombinant enzyme (full length top1)
T1 sequence (P11387 1-765): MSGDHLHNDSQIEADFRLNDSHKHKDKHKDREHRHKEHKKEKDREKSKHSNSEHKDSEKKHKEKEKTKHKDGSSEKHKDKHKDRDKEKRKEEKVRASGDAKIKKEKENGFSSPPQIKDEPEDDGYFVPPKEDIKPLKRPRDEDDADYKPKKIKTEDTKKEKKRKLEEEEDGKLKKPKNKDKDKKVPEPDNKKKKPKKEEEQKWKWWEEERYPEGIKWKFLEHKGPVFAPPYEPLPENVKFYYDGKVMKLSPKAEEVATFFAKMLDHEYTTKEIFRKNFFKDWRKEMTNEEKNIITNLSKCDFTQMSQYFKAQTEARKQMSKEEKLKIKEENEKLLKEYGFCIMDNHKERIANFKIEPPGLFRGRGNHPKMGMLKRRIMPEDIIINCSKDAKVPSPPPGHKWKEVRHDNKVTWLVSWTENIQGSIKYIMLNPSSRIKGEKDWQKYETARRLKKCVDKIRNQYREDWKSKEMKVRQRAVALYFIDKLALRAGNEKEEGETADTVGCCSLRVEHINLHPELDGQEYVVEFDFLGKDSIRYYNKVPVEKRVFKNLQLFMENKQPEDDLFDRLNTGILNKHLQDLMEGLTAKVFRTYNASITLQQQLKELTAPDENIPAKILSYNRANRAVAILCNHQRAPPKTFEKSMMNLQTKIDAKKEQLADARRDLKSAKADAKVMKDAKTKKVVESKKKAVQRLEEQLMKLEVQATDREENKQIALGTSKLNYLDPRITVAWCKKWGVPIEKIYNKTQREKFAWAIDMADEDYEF

[3] = 1 or 72 hr drug exposure, counted with Coulter counter 72 hours after exposure
[4] = NCI-H460, H460 cells, 1 or 72 hr drug exposure, counted with Coulter counter 72 hours after exposure, read-out: NCl-H460 IC50 (μg/mL) Cell count
[5] = Time 0 min after adding 0.6 M NaCl
[6] = NCI-H460, read-out: NCl-H460 IC50 (μg/mL) Cell count, H460 cells, 1 or 72 hr drug exposure, counted with Coulter counter 72 hours after exposure

## CC[C@@]1(O)C(=O)OCc2c1cc1n(c2=O)C(N(NC(=O)OC(C)(C)C)C(=O)OC(C)(C)C)c2cc3ccccc3nc2-1 (single isomer, unassigned) [5-di-tert-butoxycarbonyl-hydrazinocamptothecin Isomer 2, 5-di-t-butoxycarbonylhydrazino-camptothecin 2nd diastereomer]
[1]; [3]
  NCl-H460 IC50 (μg/mL) Cell count: > 100 µg/mL

## CC[C@@]1(O)C(=O)OCc2c1cc1n(c2=O)C(N(NC(=O)OC(C)(C)C)C(=O)OC(C)(C)C)c2cc3ccccc3nc2-1 (single isomer, unassigned) [5-di-tert-butoxycarbonyl-hydrazinocamptothecin Isomer 1, 5-di-t-butoxycarbonylhydrazino-camptothecin 1st diastereomer]
[1]; [4]
  IC50: 50 µg/mL (≈ 86.4 µM)

## CC[C@@]1(O)C(=O)OCc2c1cc1n(c2=O)C(N=[N+]=[N-])c2cc3ccccc3nc2-1 (single isomer, unassigned) [5-N3 CPT, 5-N3-camptothecin]
[2]; [5]
  Persistence of DNA Damage (%): 100%
[2]; Time 1 min after adding 0.6 M NaCl
  Persistence of DNA Damage (%): 50%
[2]; Time 5 min after adding 0.6 M NaCl
  Persistence of DNA Damage (%): 30%
[2]; Time 10 min after adding 0.6 M NaCl
  Persistence of DNA Damage (%): 15%

## CC[C@@]1(O)C(=O)OCc2c1cc1n(c2=O)C(N)c2cc3ccccc3nc2-1 (stereo partly shown) [5-NH2-camptothecin]
[1]; [4]
  IC50: 11 ± 3.1 µg/mL (≈ 30.3 µM)

## CC[C@@]1(O)C(=O)OCc2c1cc1n(c2=O)C(F)c2cc3ccccc3nc2-1 (single isomer, unassigned) [5-F-camptothecin Isomer 1, 5-F-camptothecin 1st diastereomer]
[1]; [6]
  IC50: 20.6 µg/mL (≈ 56.2 µM)
[2]; [5]
  Persistence of DNA Damage (%): 100%
[2]; Time 1 min after adding 0.6 M NaCl, listed as 5-F CPT isomers 1
  Persistence of DNA Damage (%): 18%
[2]; Time 5 min after adding 0.6 M NaCl, listed as 5-F CPT isomers 1
  Persistence of DNA Damage (%): 18%
[2]; Time 10 min after adding 0.6 M NaCl, listed as 5-F CPT isomers 1
  Persistence of DNA Damage (%): 10%

## CC[C@@]1(O)C(=O)OCc2c1cc1n(c2=O)C(N=[N+]=[N-])c2cc3ccccc3nc2-1 (single isomer, unassigned) [5-N3-camptothecin Isomer 2, 5-N3-camptothecin 2nd diastereomer]
[1]; [3]
  NCl-H460 IC50 (μg/mL) Cell count: 2.59 ± 0.7 µg/mL

## CC[C@@]1(O)C(=O)OCc2c1cc1n(c2=O)C(F)c2cc3ccccc3nc2-1 (single isomer, unassigned) [5-F-camptothecin Isomer 2, 5-F-camptothecin 2nd diastereomer]
[1]; [3]
  NCl-H460 IC50 (μg/mL) Cell count: 20 ± 5.1 µg/mL
[2]; [5]
  Persistence of DNA Damage (%): 100%
[2]; Time 1 min after adding 0.6 M NaCl, listed as 5-F CPT isomers 2
  Persistence of DNA Damage (%): 10%
[2]; Time 5 min after adding 0.6 M NaCl, listed as 5-F CPT isomers 2
  Persistence of DNA Damage (%): 10%
[2]; Time 10 min after adding 0.6 M NaCl, listed as 5-F CPT isomers 2
  Persistence of DNA Damage (%): 13%

## CC[C@@]1(O)C(=O)OCc2c1cc1n(c2=O)C(N=[N+]=[N-])c2cc3ccccc3nc2-1 (single isomer, unassigned) [5-N3-camptothecin Isomer 1, 5-N3-camptothecin 1st diastereomer]
[1]; [6]
  IC50: 4.18 µg/mL (≈ 10.7 µM)
